{"source": "patent US20250215029A1", "about": "(Recludix Pharma, Inc., priority 2022, published 2025)", "data": [{"molecular_target": "T1, pY705-STAT3 in PBMC (Homo sapiens, UniProt P40763)", "T1 construct": "Cryopreserved Peripheral Blood Mononuclear Cells (PBMC) are from AllCells; host or cells: cryopreserved PBMC", "T1 sequence (P40763 whole entry)": "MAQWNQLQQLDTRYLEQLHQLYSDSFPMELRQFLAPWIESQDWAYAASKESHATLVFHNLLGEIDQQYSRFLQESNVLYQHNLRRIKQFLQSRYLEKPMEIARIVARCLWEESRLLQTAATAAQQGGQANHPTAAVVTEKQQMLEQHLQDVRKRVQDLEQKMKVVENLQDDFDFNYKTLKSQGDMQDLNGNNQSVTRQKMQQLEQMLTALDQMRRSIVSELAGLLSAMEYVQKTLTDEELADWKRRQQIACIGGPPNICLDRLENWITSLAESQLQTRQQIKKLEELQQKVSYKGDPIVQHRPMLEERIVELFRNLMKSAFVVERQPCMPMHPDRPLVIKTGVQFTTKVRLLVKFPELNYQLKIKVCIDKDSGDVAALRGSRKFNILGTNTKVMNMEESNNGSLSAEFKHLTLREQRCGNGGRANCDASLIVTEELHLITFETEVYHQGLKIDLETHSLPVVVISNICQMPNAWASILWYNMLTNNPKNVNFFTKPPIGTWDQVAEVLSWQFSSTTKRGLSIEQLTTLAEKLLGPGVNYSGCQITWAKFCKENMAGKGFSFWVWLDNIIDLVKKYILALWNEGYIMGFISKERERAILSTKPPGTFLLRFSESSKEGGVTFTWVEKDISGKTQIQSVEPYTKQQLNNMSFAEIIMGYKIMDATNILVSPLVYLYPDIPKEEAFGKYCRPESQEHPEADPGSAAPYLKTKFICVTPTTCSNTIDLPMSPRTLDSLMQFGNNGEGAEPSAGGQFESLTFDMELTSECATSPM", "assay": "MSD-pSTAT-PBMC Assay (pSTAT3, IL-6 stimulated)", "type": "cell-based", "conditions": "PBMC, compound 3 hrs, then 10 ng/mL IL-6 for 10 min; Table 115; read-out: STAT3", "summary_of_the_method": "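Cells are preincubated with compound for 3 hrs, then stimulated for 10 min, IL-4 at 1 ng/mL driving STAT6 phosphorylation and IL-6 at 10 ng/mL driving STAT3. Phospho-STAT in lysates is quantified by MSD immunoassay, and IC50 is fitted after subtracting unstimulated wells.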", "units": {"IC50": "nM"}, "values": [{"smiles": "CCCOC(=O)[C@H](C)NP(=O)(Cc1ccc2sc(C(=O)N[C@H]3CCC[C@H]4CC[C@@H](C(=O)N5CC(c6cncnc6N(C)C)C5)N4C3=O)cc2c1)Oc1ccccc1", "note": "(stereo partly drawn) [Compound 1070, propyl (((2-(((3S,6S,9aS)-3-(3-(4-(dimethylamino)pyrimidin-5-yl)azetidine-1-carbonyl)-5-oxooctahydro-1H-pyrrolo[1,2-a]azepin-6-yl)carbamoyl)benzo [b]thiophen-5-yl)methyl)(phenoxy)phosphoryl)-L-alaninate]", "IC50": "< 100"}]}, {"molecular_target": "T2, pY641-STAT6 in PBMC (Homo sapiens, UniProt P42226)", "T2 construct": "Cryopreserved Peripheral Blood Mononuclear Cells (PBMC) are from AllCells; host or cells: cryopreserved PBMC", "T2 sequence (P42226 1-847)": "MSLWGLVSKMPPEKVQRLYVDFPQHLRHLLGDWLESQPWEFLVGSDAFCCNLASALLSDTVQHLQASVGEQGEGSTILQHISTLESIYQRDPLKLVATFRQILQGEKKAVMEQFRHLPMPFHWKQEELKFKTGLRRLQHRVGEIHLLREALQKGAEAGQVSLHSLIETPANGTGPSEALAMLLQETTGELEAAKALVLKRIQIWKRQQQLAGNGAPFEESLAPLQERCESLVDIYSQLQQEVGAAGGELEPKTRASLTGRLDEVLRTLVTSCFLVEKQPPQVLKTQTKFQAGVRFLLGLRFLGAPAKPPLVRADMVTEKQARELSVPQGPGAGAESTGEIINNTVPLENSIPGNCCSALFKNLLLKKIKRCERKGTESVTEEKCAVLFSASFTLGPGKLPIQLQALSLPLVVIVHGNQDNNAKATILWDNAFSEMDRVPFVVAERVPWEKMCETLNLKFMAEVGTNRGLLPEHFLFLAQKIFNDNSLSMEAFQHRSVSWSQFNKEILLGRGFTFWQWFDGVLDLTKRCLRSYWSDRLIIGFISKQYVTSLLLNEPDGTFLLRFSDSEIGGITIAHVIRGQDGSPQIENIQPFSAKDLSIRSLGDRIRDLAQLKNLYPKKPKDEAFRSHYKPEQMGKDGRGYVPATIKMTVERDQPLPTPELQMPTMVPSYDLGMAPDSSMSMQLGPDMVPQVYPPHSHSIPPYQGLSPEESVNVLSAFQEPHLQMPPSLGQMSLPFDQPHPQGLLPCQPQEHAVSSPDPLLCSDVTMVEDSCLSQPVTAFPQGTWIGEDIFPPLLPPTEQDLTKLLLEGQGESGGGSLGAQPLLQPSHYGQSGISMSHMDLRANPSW", "assay": "MSD-pSTAT-PBMC Assay (pSTAT6, IL-4 stimulated)", "type": "cell-based", "conditions": "PBMC, compound 3 hrs, then 1 ng/mL IL-4 for 10 min; Table 115; read-out: STAT6", "from_the_text": "(§1) Cryopreserved Peripheral Blood Mononuclear Cells (PBMC) are from AllCells. Recombinant Human IL-4 and IL-6 are from Peprotech. Mouse monoclonal anti-STAT3 antibody, rabbit monoclonal anti-pY705-STAT3 antibody, rabbit monoclonal Anti-pY641-STAT6 antibody, and lysis buffer are from Cell Signaling Technology (CST). Mouse monoclonal anti-STAT6 antibody is from BioLegend. Assay plates, blocker, and anti-rabbit secondary antibody are from Meso Scale Discovery (MSD).\n(§2) Cyropreserved PBMCs were thawed out and allowed to recover overnight in IMDM+10% heat-inactivated FBS prior to plating 50,000 (STAT3) or 25,000 (STAT6) cells per well in 96-well U-bottom tissue culture plates. Cells were treated with compound for 3 hrs, then stimulated with 10 ng/mL IL-6 (STAT3) or 1 ng/mL IL-4 (STAT6) for 10 min. Cells were then spun down and washed with ice-cold PBS prior to lysing the cell pellet with 1× lysis buffer (CST) with 1× HALT protease and phosphatase inhibitor cocktail (Thermo). Lysates were transferred to and incubated overnight at 4° C. with shaking in QuickPlex 96-well high bind assay plates (MSD) pre-coated overnight with 30 μL per well of 0.6 μg/mL mouse monoclonal anti-STAT3 antibody (STAT3) or 2 μg/mL mouse monoclonal anti-STAT6 antibody (STAT6) in 1× PBS, and pre-blocked for 1 hour with 3% Blocker-A (MSD). Captured protein in the assay plates were then washed and probed with 25 μL per well of […] rabbit monoclonal anti-pY705-STAT3 antibody (STAT3) or 0.18 μg/ml rabbit monoclonal Anti-pY641-STAT6 antibody (STAT6) in 1% Blocker-A for 1 hour at room temperature with shaking, then washed and probed with 25 ul per well of 1 ug/ml Sulfo-TAG Labeled Goat Anti-Rabbit Antibody (MSD) in 1% Blocker-A for 1 hour at room temperature with shaking. Assay plates were then washed and 150 μL of 1× Read Buffer-T (MSD) was added to each well prior to reading on an SQ120 MSD Plate Reader. Assay signal from each sample was subtracted by the signal from unstimulated control wells and normalized to DMSO control wells. IC50 values were calculated using Graph Pad Prism Dose-Response Nonlinear Regression with variable slope. For both pSTAT3 and pSTAT6 A=≤100 nM; B 100-1000 nM; C=>1000-3000 nM; D=>3 μM; and NT=Not Tested.", "units": {"IC50": "nM"}, "values": [{"smiles": "CCCOC(=O)[C@H](C)NP(=O)(Oc1ccccc1)[C@@H](F)c1ccc2sc(C(=O)N[C@H]3CCCC[C@H]4CC[C@@H](C(=O)N5C[C@H](c6cccnc6)[C@@H](C#N)C56CC6)N4C3=O)cc2c1", "note": "(stereo partly shown) [Compound 365]", "IC50": "< 100"}]}, {"molecular_target": "T2, pY641-STAT6 in PBMC", "assay": "MSD-pSTAT-PBMC Assay (pSTAT6, IL-4 stimulated)", "type": "cell-based", "conditions": "STAT6, PBMC, compound 3 hrs, then 1 ng/mL IL-4 for 10 min; Table 115", "from_the_text": "as §1, §2", "units": {"IC50": "nM"}, "values": [{"smiles": "CCCOC(=O)[C@H](C)NP(=O)(Oc1ccccc1)[C@H](F)c1ccc2sc(C(=O)N[C@H]3C[C@H](C)C[C@H]4CC[C@@H](C(=O)N5C[C@H](c6ccccc6)[C@@H](C#N)C56CC6)N4C3=O)cc2c1", "note": "(stereo partly drawn) [Compound 352, propyl (((S)-(2-(((3S,6S,8S,9aR)-3-((6S,7R)-7-cyano-6-phenyl-4-azaspiro[2.4]heptane-4-carbonyl)-8-methyl-5-oxooctahydro-1H-pyrrolo[1,2-a]azepin-6-yl)carbamoyl)benzo [b]thiophen-5-yl)fluoromethyl) (phenoxy)phosphoryl)-L-alaninate]", "IC50": "< 100"}, {"smiles": "CCCOC(=O)[C@H](C)NP(=O)(Oc1cccc(OCCOC)c1)[C@@H](F)c1ccc2sc(C(=O)N[C@H]3CCC[C@H]4CC[C@@H](C(=O)N5C[C@@H](c6cccnc6)CC56CC6)N4C3=O)cc2c1", "note": "(stereo partly drawn) [Compound 357, propyl (((R)-fluoro(2-(((3S,6S,9aS)-5-oxo-3-((R)-6-(pyridin-3-yl)-4-azaspiro[2.4]heptane-4-carbonyl)octahydro-1H-pyrrolo[1,2-a]azepin-6-yl)carbamoyl)benzo [b]thiophen-5-yl)methyl)(3-(2-methoxyethoxy)phenoxy)phosphoryl)-L-alaninate]", "IC50": "< 100"}, {"smiles": "CCCOC(=O)[C@H](C)NP(=O)(Oc1ccccc1)C(F)c1ccc2sc(C(=O)N[C@H]3CCCC[C@H]4CC[C@@H](C(=O)N5C[C@@H](C#N)[C@H](c6ccn(C)c(=O)c6)C5)N4C3=O)cc2c1", "note": "(single isomer, unassigned) [Compound 318]", "IC50": "> 3000"}, {"smiles": "CCCOC(=O)[C@H](C)NP(=O)(Oc1ccccc1)C(F)c1ccc2ccc(C(=O)N[C@H]3CCC[C@H]4CC[C@@H](C(=O)N5CC(c6cccnc6)CC56CC6)N4C3=O)cc2c1", "note": "(stereo partly drawn) [Compound 453, propyl ((fluoro(7-(((3S,6S,9aS)-5-oxo-3-(6-(pyridin-3-yl)-4-azaspiro[2.4]heptane-4-carbonyl)octahydro-1H-pyrrolo[1,2-a]azepin-6-yl)carbamoyl)naphthalen-2-yl)methyl)(phenoxy)phosphoryl)-L-alaninate]", "IC50": "100 to 1000"}, {"smiles": "CCCOC(=O)[C@H](C)NP(=O)(Oc1ccccc1)C(F)c1ccc2sc(C(=O)N[C@H]3CCCC[C@H]4CC[C@@H](C(=O)N5C(=O)N(c6cccnc6)CC56CC6)N4C3=O)cc2c1", "note": "(stereo partly drawn) [Compound 467, propyl ((fluoro(2-(((3S,6S,10aS)-5-oxo-3-(5-oxo-6-(pyridin-3-yl)-4,6-diazaspiro[2.4]heptane-4-carbonyl)decahydropyrrolo[1,2-a]azocin-6-yl)carbamoyl)benzo [b]thiophen-5-yl)methyl)(phenoxy)phosphoryl)-L-alaninate]", "IC50": "> 3000"}, {"smiles": "CCCOC(=O)[C@H](C)NP(=O)(Cc1ccc2sc(C(=O)N[C@H]3CCC[C@H]4CC[C@@H](C(=O)N5C[C@@H](c6ccccc6)[C@H](C#N)C56CC6)N4C3=O)cc2c1)Oc1ccccc1", "note": "(stereo partly drawn) [Compound 486, propyl (((2-(((3S,6S,9aS)-3-((6R,7S)-7-cyano-6-phenyl-4-azaspiro[2.4]heptane-4-carbonyl)-5-oxooctahydro-1H-pyrrolo[1,2-a]azepin-6-yl)carbamoyl)benzo [b]thiophen-5-yl)methyl)(phenoxy)phosphoryl)-L-alaninate]", "IC50": "< 100"}, {"smiles": "CCCCOC(=O)[C@H](C)NP(=O)(Cc1ccc2ccc(C(=O)N[C@H]3CCCC[C@H]4CC[C@@H](C(=O)N5CC(c6ccccc6)CC56CC6)N4C3=O)cc2c1)Oc1cccc2ccccc12", "note": "(stereo partly drawn) [Compound 416, butyl ((naphthalen-1-yloxy)((7-(((3S,6S,10aS)-5-oxo-3-(6-phenyl-4-azaspiro[2.4]heptane-4-carbonyl)decahydropyrrolo[1,2-a]azocin-6-yl)carbamoyl)naphthalen-2-yl)methyl)phosphoryl)-L-alaninate]", "IC50": "> 3000"}, {"smiles": "COC(C)(C)COC(=O)[C@H](C)NP(=O)(Oc1ccccc1)[C@@H](F)c1ccc2sc(C(=O)N[C@H]3CCCC[C@H]4CC[C@@H](C(=O)N5C[C@@H](c6cccnc6)CC56CC6)N4C3=O)cc2c1", "note": "(stereo partly drawn) [Compound 358, 2-methoxy-2-methylpropyl (((R)-fluoro(2-(((3S,6S,10aS)-5-oxo-3-((R)-6-(pyridin-3-yl)-4-azaspiro[2.4]heptane-4-carbonyl)decahydropyrrolo[1,2-a]azocin-6-yl)carbamoyl)benzo [b]thiophen-5-yl)methyl)(phenoxy)phosphoryl)-L-alaninate]", "IC50": "< 100"}, {"smiles": "CCCOC(=O)[C@H](C)NP(=O)(Oc1ccccc1)C(F)c1ccc2ccc(C(=O)N[C@H]3CCCC[C@H]4CC[C@@H](C(=O)N5C[C@@H](C#N)[C@H](c6ccccc6)C5)N4C3=O)cc2c1", "note": "(single isomer, unassigned) [Compound 316]", "IC50": "< 100"}, {"smiles": "CCCOC(=O)[C@@H]1CCN1P(=O)(Oc1ccccc1)[C@H](F)c1ccc2sc(C(=O)N[C@H]3CCC[C@H]4CC[C@@H](C(=O)N5C[C@H](c6ccccc6)[C@@H](C#N)C56CC6)N4C3=O)cc2c1", "note": "(stereo partly drawn) [Compound 488, propyl (2S)-1-(((S)-(2-(((3S,6S,9aS)-3-((6S,7R)-7-cyano-6-phenyl-4-azaspiro[2.4]heptane-4-carbonyl)-5-oxooctahydro-1H-pyrrolo[1,2-a]azepin-6-yl)carbamoyl)benzo [b]thiophen-5-yl)fluoromethyl) (phenoxy)phosphoryl) azetidine-2-carboxylate]", "IC50": "1000 to 3000"}]}, {"molecular_target": "T2, pY641-STAT6 in PBMC", "assay": "MSD-pSTAT-PBMC Assay (pSTAT6, IL-4 stimulated)", "type": "cell-based", "conditions": "read-out: STAT6; PBMC, compound 3 hrs, then 1 ng/mL IL-4 for 10 min; Table 115", "from_the_text": "as §1, §2", "units": {"IC50": "nM"}, "values": [{"smiles": "CCCOC(=O)[C@H](C)NP(=O)(Oc1ccccc1)[C@@H](F)c1ccc2sc(C(=O)N[C@H]3CCCC[C@H]4CC[C@@H](C(=O)N5C[C@@H](c6cccc(C(F)F)c6)[C@H](C#N)C56CC6)N4C3=O)cc2c1", "note": "(single isomer, unassigned) [Compound 483]", "IC50": "< 100"}]}]}
